Laboratory results from patent US20090028920A1, “UROLOGICAL DEVICES INCORPORATING COLLAGEN INHIBITORS” (Wake Forest University Health Sciences, priority 2006, published 2009).

Key:
[1] = Drug release study of coated stents in PBS (UV spectroscopy at 243 nm); type: physicochemical; details: approx. 3 cm coated silicone stents, room temperature, 24-hour intervals
Experimental: Drug release studies were then performed to determine the amount of halofuginone released by the coated stents, and the timing of drug release. Stents approximately 3 cm in length were coated with halofuginone using our proprietary technique. These stents were then placed in PBS solution at room temperature for 24-hour intervals. After each 24-hour interval, the stents were placed in a new PBS solution, and the previous solution was analyzed for halofuginone concentration using UV spectroscopy (absorption at 243 nm). This process was continued daily until the amount of halofuginone in the PBS dropped to immeasurable levels.

[2] = tested on: ureter and urethra; details: orally administered and locally injected; cited from earlier work
[3] = rat, in vivo
Experimental: HF Analysis in Local Tissues and Serum (in Rat): The tissue specimens were morcellated, incubated for 24 hours in 40 mL of PBS, centrifuged, and a sample was taken for HF concentration analysis via spectrophotometry. Blood was also drawn (1 mL) from the heart post-mortem, added to 5 mL of PBS, centrifuged, and the serum analyzed for HF concentration via spectrophotometry.

[4] = oral doses of up to 3.5 mg/day; cited from earlier work

Compound: O=C(CC1NCCCC1O)Cn1cnc2cc(Br)c(Cl)cc2c1=O (centres unmarked) [halofuginone, 7-bromo-6-chloro-3-[3-(3-hydroxy-2-piperidinyl)-2-oxopropyl]-4(3H)]
- duration of sustained release of halofuginone from the stents [1]: approximately 4 days
- release profile [1]: large burst release the first 24 hours
- collagen deposition and stricture formation [2]: prevent collagen deposition and stricture formation
- difference between HF levels in serum vs penile tissue [3]: almost a ten-fold difference
- tolerability [4]: minimal ill effects
